The assay relates to person's skin. The assay is described as follows: Experimentation with ingredient concentrations in the ointment formulation applied to a person's skin. The format is in vivo, human. The conditions noted are these: Zinc Oxide amount lesser than 4.70% of the formulation. The text has this:
The ointment formulation includes an occlusive and nourishing ingredient in an amount configured to reduce moisture evaporation from and seal the skin. The specific occlusive and nourishing ingredient in the subject ointment formulation may be Lanolin. Lanolin is additionally selected for its ability to supply the skin with a majority of the 23 proteinogenic, i.e., protein-building, amino acids, which combine into peptide chains to form the building blocks of a vast array of proteins. In an exemplary 126.0 ml volume sample of the ointment formulation, the specific volume of the Lanolin ingredient was 103.53 ml, or 82.17%. Although Lanolin made up 82.17% of the exemplary sample, the allowable range of the Lanolin ingredient in the ointment formulation is approximately 74-85%.
The ointment formulation having the specific disclosed volume of Lanolin is for a moderate to severe condition of the skin. Although the amount of Lanolin may be increased for more severe conditions, the disclosed specific concentration of 82.17% is near the maximum that may be used while maintaining the necessary amounts of the other ingredients. Accordingly, as the volume of Lanolin is adjusted for severity of the particular skin condition, the amounts of other ingredients to be described with specificity below would have to be adjusted accordingly. […]

Take `[O]=[Zn]` [Zinc Oxide]: the effectiveness entry is on record as “has not shown to be effective”.

The record behind these values is patent US20140271920A1, “SKIN OINTMENT FORMULATION” (priority 2013, published 2014).
